In patent EP4786484A1, “CYCLIC PEPTIDE COMPOUND AND USE THEREOF” (Shenzhen Zhongge Biological Technology Co., Ltd., priority 2023, dated 2026):
Residues, ends and D or L forms follow the SMILES beside them.

Tests used:
[1] = tested on: Fibroblasts of human origin; experiment: Fibroblast cytotoxicity test (MTT); format: cell-based; conditions: 24 h, OD 490 nm
Protocol: A. Fibroblast cytotoxicity test
Test materials: Fibroblasts of human origin (Guangdong Boxi Biotechnology Co., Ltd., Lot No. Fb20081902), DMEM culture medium (Gibco, 23042301, expiration date on 230522), PBS (Solarbio, P1010), MTT (Sigma, M5655), DMSO (Sigma, D4540-1L), CO2 incubator (Thermo, 150I), super-clean bench (AIRTECH, SW-CJ-1F), inverted microscope (Olympus, CKX53).
Test methods: • 1) Cell inoculation: After cell resuscitation, the cells were inoculated into 96-well plates when the plating rate reached around 60%, and were incubated overnight in an incubator (37°C, 5% CO2). • 2) Test grouping: The blank group, solvent control group, positive control group, and sample group were set for the test. In the sample group, 7 concentration gradients were set for each sample and 3 duplicate wells were set for each concentration gradient. • 3) Formulation of solutions: Sample working solutions at different concentrations were formulated based on the test concentrations of 0.0781 µM, 0.1563 µM, 0.3125 µM, 0.625 µM, 1.25 µM, 2.5 µM, and 5 µM. • 4) Administration: Administration was performed when the cell plating rate in the 96-well plates reached 50% to 60%. 200 µL of culture medium per well was added for the solvent control group; 200 µL of culture medium containing 10% DMSO per well was added for the positive control group; 200 µL of culture medium containing the sample at a corresponding concentration per well was added for the sample group; The blank group had no cell inoculation, for which only 200 µL of cell culture medium was added. After the administration was complete, the 96-well plates were incubated in an incubator (37°C, 5% CO2) for 24 h. • 5) Detection: After 24 h of cell incubation and culture, the supernatant was discarded, and MTT working solution (0.5 mg/mL) was added. Incubation was performed at 37°C for 4 h in the dark. After the incubation was completed, the supernatant was discarded and 150 µL DMSO was added to each well. The OD value was read at 490 nm. • 6) Calculation of relative viability of cells: Calculation was performed according to the formula below: Relative viability of cells = (Sample well OD−Blank well OD)/(Solvent control well OD−Blank well OD) × 100%. [formula]

[2] = tested on: Collagen I (type I collagen); experiment: Collagen I elevation effect in fibroblasts (ELISA); format: cell-based, human; conditions: 1 µM, 24 h; result in words
Text: (§1) B. Collagen I (type I collagen) elevation effect in fibroblasts, hyaluronic acid (HA) elevation effect in fibroblasts, and elastin (ELN) elevation effect in fibroblasts
(§2) Test materials: Fibroblasts of human origin (Guangdong Boxi Biotechnology Co., Ltd., Lot No. Fb20081902), DMEM culture medium (Gibco, 23042301, expiration date 230522), PBS (Solarbio, P1010), TGF-β1 (Peprotech, 230504), Collagen I ELISA Kit (Cusabio, B21025824), Elastin ELISA kit (Abcam, GR3446070-2), HA ELISA kit (RD, P325066). CO2 incubator (Thermo, 1501), super-clean bench (AIRTECH, SW-CJ-1F), microplate reader (BioTek, Epoch).
(§3) Test methods: • 1) Inoculation: After cell resuscitation, the cells were inoculated into 6-well plates when the plating rate reached around 60%, and were incubated overnight in an incubator (37°C, 5% CO2). • 2) Formulation of solutions: The cyclic peptide compounds in the sample group, PC2 (Biotinoyl-GHK, [drawing 2] ) and PC3 [drawing 3] in the positive reference group were all at the concentration of 1 µM, and the test substance working solutions were formulated. Only the cell culture medium was added for the blank control group (BC). • 3) Administration: When the cell plating rate in the 6-well plates reached 40% to 60%, administration was performed at 2 mL per well. 3 duplicate wells were set for each group. Incubation was performed in an incubator (37°C, 5% CO2) for 24 h. • 4) ELISA assay: The ELISA assay was performed according to the instructions of the ELISA kit, with the detection indicators being Collagen I elevation effect in the fibroblasts, HA elevation effect in the fibroblasts, and elastin elevation effect in the fibroblasts.

hyaluronic acid (HA) = experiment: Hyaluronic acid (HA) elevation effect in fibroblasts (ELISA); format: cell-based, human; design: HA elevation effect in the fibroblasts: unit not given here; conditions: 1 µM, 24 h
Text: as §1, §2, §3

elastin (ELN) = experiment: Elastin (ELN) elevation effect in fibroblasts (ELISA); format: cell-based, human; design: Elastin elevation effect in the fibroblasts: unit not given here; conditions: 1 µM, 24 h
Text: as §1, §2, §3

## CC(C)C[C@@H]1NC(=O)[C@H](Cc2ccccc2)NC(=O)[C@H](CC(C)C)NC(=O)[C@H](CCCCN)NC(=O)[C@H](Cc2c[nH]cn2)NC(=O)CNC1=O [compound 292] (cyclo(FLGHKL))
[1]; 0.0781 µM
  Relative viability of cells: 107.68%
[1]; 0.1563 µM
  Relative viability of cells: 107.63%
[1]; 0.3125 µM
  Relative viability of cells: 105.05%
[1]; 0.625 µM
  Relative viability of cells: 102.37%
[1]; 1.25 µM
  Relative viability of cells: 102.07%
[1]; 2.5 µM
  Relative viability of cells: 102.88%
[1]; 5 µM
  Relative viability of cells: 102.88%
[2]
  type I collagen (Collagen I) content compared to the BC: significant increase
Hyaluronic acid (HA); ELISA, Blank control (BC) 1402.44
  HA elevation effect in the fibroblasts: 2635.98
Hyaluronic acid (HA); result in words
  hyaluronic acid (HA) content compared to the BC: significant increase
Elastin (ELN); ELISA, Blank control (BC) 756.52
  Elastin elevation effect in the fibroblasts: 1278.99
Elastin (ELN); result in words
  elastin content compared to the BC: significant increase
